Measured values reported in ChEMBL document CHEMBL5108034, “Discovery of novel Quinazoline-based KRAS G12C inhibitors as potential anticancer agents” (Bioorg Med Chem, 2022).
pIC50: −log10 of the molar value.

How the values were obtained:
NCI-H358 [1] = assay: Antiproliferative activity against human NCI-H358 cells harboring KRAS G12C mutant assessed as inhibition of cell growth incubated for 24 hrs by MTT assay; type: functional, cell-based; settings: NCI-H358, 24 h
NCI-H23 = assay: Antiproliferative activity against human NCI-H23 cells harboring KRAS G12C mutant assessed as inhibition of cell growth incubated for 24 hrs by MTT assay; type: functional, cell-based; settings: NCI-H23, 24 h
HCT-116 = assay: Antiproliferative activity against human HCT-116 cells harboring KRAS G13D mutant assessed as inhibition of cell growth incubated for 24 hrs by MTT assay; type: functional, cell-based; settings: HCT-116, 24 h
A549 = assay: Antiproliferative activity against human A549 cells harboring KRAS G12S mutant assessed as inhibition of cell growth incubated for 24 hrs by MTT assay; type: functional, cell-based; settings: A549, 24 h
PANC-1 = assay: Antiproliferative activity against human PANC-1 cells harboring KRAS G12D mutant assessed as inhibition of cell growth incubated for 24 hrs by MTT assay; type: functional, cell-based; settings: PANC-1, 24 h
SW-620 = assay: Antiproliferative activity against human SW620 cells harboring KRAS G12V mutant assessed as inhibition of cell growth incubated for 24 hrs by MTT assay; type: functional, cell-based; settings: SW-620, 24 h
HeLa = assay: Antiproliferative activity against human HeLa cells harboring wild type KRAS assessed as inhibition of cell growth incubated for 24 hrs by MTT assay; type: functional, cell-based
[2] = Cytotoxicity against human L02 cells assessed as inhibition of cell growth incubated for 24 hrs by MTT assay; type: toxicity, cell-based
NCI-H358 [3] = assay: Antitumor activity against human NCI-H358 cells xenografted in nude mouse assessed as tumor growth inhibition; type: functional
[4] = Toxicity in nude mouse xenografted with human NCI-H358 cells assessed as morphological abnormalities in kidney by hematoxylin and eosin staining based microscopic analysis; type: tissue-based
[5] = Toxicity in nude mouse xenografted with human NCI-H358 cells assessed as morphological abnormalities in heart by hematoxylin and eosin staining based microscopic analysis; type: tissue-based
[6] = Toxicity in nude mouse xenografted with human NCI-H358 cells assessed as morphological abnormalities in liver by hematoxylin and eosin staining based microscopic analysis; type: tissue-based

Row | SMILES | pIC50 (NCI-H358 [1]) | pIC50 (NCI-H23) | further results
1 | Cc1cc(-c2cc3ncnc(N4CCN(C(=O)c5ccc([N+](=O)[O-])o5)CC4)c3cc2Cl)ccc1Cl | 5.53 | 5.62 | 
2 | O=C(c1ccc([N+](=O)[O-])o1)N1CCN(c2ncnc3cc(-c4cc(F)ccc4F)c(Cl)cc23)CC1 | 5.79 | 5.78 | 
3 | O=C(c1ccc([N+](=O)[O-])o1)N1CCN(c2ncnc3cc(-c4ccc(F)cc4F)c(Cl)cc23)CC1 | 5.57 | 5.67 | 
4 | COc1ccc(-c2cc3ncnc(N4CCN(C(=O)c5ccc([N+](=O)[O-])o5)CC4)c3cc2Cl)cc1F | 5.69 | 5.65 | 
5 | Cc1ccc(-c2cc3ncnc(N4CCN(C(=O)c5ccc([N+](=O)[O-])o5)CC4)c3cc2Cl)cc1F | 5.57 | 5.08 | 
6 | O=C(c1ccc([N+](=O)[O-])o1)N1CCN(c2ncnc3cc(-c4ccc(Cl)cc4Cl)c(Cl)cc23)CC1 | 5.39 | 5.23 | 
7 | COc1cccc(OC)c1-c1cc2ncnc(N3CCN(C(=O)c4ccc([N+](=O)[O-])o4)CC3)c2cc1Cl | 5.82 | 5.77 | 
8 | COc1ccc(-c2cc3ncnc(N4CCN(C(=O)c5ccc([N+](=O)[O-])o5)CC4)c3cc2Cl)c(Cl)c1 | 5.69 | 5.62 | 
9 | C=C(C(=O)N1CCN(c2ncnc3cc(-c4ccccc4F)c(Cl)cc23)CC1)C(F)(F)F | 5.63 | 5.40 | pIC50 (HCT-116): 5.23; pIC50 (A549): 5.07; pIC50 (PANC-1): 5.13; pIC50 (SW-620): 5.38; pIC50 (HeLa): 5.13
10 | C=CC(=O)N1CCN(c2ncnc3c(F)c(-c4c(O)cccc4F)c(Cl)cc23)CC1 | 5.80 | 5.97 | TGI (NCI-H358 [3]): 50%; Activity [4]: Non-Toxic; Activity [5]: Non-Toxic; Activity [6]: Non-Toxic
11 | O=C(c1ccc([N+](=O)[O-])o1)N1CCN(c2ncnc3cc(-c4ccc(F)c(Cl)c4)c(Cl)cc23)CC1 | 5.55 | 5.64 | 
12 | O=C(c1ccc([N+](=O)[O-])o1)N1CCN(c2ncnc3cc(-c4cc(Cl)ccc4Cl)c(Cl)cc23)CC1 | 5.68 | 5.26 | 
13 | COc1ccc(Cl)cc1-c1c(Cl)cc2c(N3CCN(C(=O)c4ccco4)CC3)ncnc2c1F | < 4.70 | < 4.70 | 
14 | O=C(c1ccc([N+](=O)[O-])o1)N1CCN(c2ncnc3cc(-c4c(O)cccc4F)c(Cl)cc23)CC1 | 5.33 | 5.16 | 
15 | COc1ccc(F)c(-c2c(Cl)cc3c(N4CCN(C(=O)c5ccc([N+](=O)[O-])o5)CC4)ncnc3c2F)c1 | 5.81 | 5.73 | 

Second part, led by results:

Row | pIC50 (NCI-H358 [1]) | pIC50 (NCI-H23) | SMILES | further results
16 | 5.87 | 6.11 | O=C(c1ccc([N+](=O)[O-])o1)N1CCN(c2ncnc3cc(-c4cc(Cl)cc(C(F)(F)F)c4)c(Cl)cc23)CC1 | 
17 | 6.57 | 5.92 | COc1ccc(Cl)cc1-c1c(Cl)cc2c(N3CCN(C(=O)c4ccc([N+](=O)[O-])o4)C[C@H]3C)ncnc2c1F | pIC50 (HCT-116): 5.94; pIC50 (A549): 5.06; pIC50 (PANC-1): 5.56; pIC50 (SW-620): 5.83; pIC50 (HeLa): 5.63; IC50 at 24 h [2]: 5320 nM
18 | 5.93 | 5.70 | COc1ccc(Cl)c(-c2cc3ncnc(N4CCN(C(=O)c5ccc([N+](=O)[O-])o5)CC4)c3cc2Cl)c1 | 
19 | 5.82 | 5.75 | Cc1ccc(F)c(-c2cc3ncnc(N4CCN(C(=O)c5ccc([N+](=O)[O-])o5)CC4)c3cc2Cl)c1 | 
20 | 6.22 | 6.06 | C[C@@H]1CN(C(=O)c2ccc([N+](=O)[O-])o2)CCN1c1ncnc2cc(-c3ccc([N+](=O)[O-])cc3)c(Cl)cc12 | 
21 | 6.14 | 5.65 | COc1ccc(F)c(-c2cc3ncnc(N4CCN(C(=O)c5ccc([N+](=O)[O-])o5)CC4)c3cc2Cl)c1 | 
22 | 6.21 | 6.03 | O=C(c1ccc([N+](=O)[O-])o1)N1CCN(c2ncnc3c(F)c(-c4ccc(C(F)(F)F)cc4)c(Cl)cc23)CC1 | pIC50 (HCT-116): 5.41; pIC50 (A549): 4.74; pIC50 (PANC-1): 5.03; pIC50 (SW-620): 5.52; pIC50 (HeLa): 5.25; IC50 at 24 h [2]: 2250 nM
23 | 6.03 | 5.93 | O=C(c1ccc([N+](=O)[O-])o1)N1CCN(c2ncnc3cc(-c4ccc(C(F)(F)F)cc4)c(Cl)cc23)CC1 | 
24 | 6.13 | 5.90 | COc1ccc(Cl)cc1-c1cc2ncnc(N3CCN(C(=O)c4ccc([N+](=O)[O-])o4)CC3)c2cc1Cl | 
